Ki data for one compound are collected here from publication PMC4136709 (ACS Chemical Biology, 2014).

Test [1] addresses T1, PhaECAv (Allochromatium vinosum, UniProt P45370).
T1 sequence (P45370 1-355): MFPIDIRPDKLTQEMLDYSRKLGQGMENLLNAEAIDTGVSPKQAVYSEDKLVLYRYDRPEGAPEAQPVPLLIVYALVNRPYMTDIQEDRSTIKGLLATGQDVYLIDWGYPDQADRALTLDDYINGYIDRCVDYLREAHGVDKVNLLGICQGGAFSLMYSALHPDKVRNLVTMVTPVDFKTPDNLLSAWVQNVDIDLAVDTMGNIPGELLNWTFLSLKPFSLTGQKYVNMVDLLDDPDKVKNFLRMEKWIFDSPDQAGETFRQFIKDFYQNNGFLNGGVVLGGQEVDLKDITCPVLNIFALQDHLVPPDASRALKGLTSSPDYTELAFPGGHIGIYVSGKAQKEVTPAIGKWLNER
T1 sequence (P45372 1-357 partner): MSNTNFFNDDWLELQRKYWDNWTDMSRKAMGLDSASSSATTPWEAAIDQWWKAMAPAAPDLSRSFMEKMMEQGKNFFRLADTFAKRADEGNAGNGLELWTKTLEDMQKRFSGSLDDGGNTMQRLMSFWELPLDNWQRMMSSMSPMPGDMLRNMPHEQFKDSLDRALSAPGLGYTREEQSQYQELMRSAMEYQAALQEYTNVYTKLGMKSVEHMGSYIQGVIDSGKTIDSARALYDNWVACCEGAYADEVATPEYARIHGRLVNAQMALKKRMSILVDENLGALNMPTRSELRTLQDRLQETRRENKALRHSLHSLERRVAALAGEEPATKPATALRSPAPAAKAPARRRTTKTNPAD
The test can be described thus: discontinuous DTNB assay of CoA release. Type of test: biochemical.

The target in test [2] is T2, PhaCRe (Cupriavidus necator, UniProt P23608).
T2 sequence (P23608 1-589): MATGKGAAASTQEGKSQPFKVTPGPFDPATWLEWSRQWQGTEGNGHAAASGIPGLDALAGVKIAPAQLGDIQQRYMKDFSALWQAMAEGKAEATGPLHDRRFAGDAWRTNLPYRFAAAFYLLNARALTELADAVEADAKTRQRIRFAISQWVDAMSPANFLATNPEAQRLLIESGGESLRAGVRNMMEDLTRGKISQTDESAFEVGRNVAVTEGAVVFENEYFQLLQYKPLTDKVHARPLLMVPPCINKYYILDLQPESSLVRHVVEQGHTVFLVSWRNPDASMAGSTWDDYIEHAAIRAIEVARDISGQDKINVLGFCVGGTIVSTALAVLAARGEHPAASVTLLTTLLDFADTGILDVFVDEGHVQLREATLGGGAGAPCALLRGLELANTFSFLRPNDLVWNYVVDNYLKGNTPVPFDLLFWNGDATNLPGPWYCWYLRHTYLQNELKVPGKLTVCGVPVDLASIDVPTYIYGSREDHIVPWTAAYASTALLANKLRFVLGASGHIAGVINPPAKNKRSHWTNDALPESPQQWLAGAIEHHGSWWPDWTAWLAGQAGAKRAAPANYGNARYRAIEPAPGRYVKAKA
The test can be described thus: discontinuous DTNB assay of CoA release. Type of test: biochemical.

The Ki is the equilibrium dissociation constant of an inhibitor or competing ligand from its target. A high value points to lower affinity.

As to `C[C@@H](O)CC(=O)CCCNC(=O)CCNC(=O)[C@H](O)C(C)(C)COP(=O)(O)OP(=O)(O)OC[C@H]1O[C@@H](n2cnc3c(N)ncnc32)[C@H](O)[C@@H]1OP(=O)(O)O` [compound 1, HBCH2CoA], the figures for the Ki in test [1] and in test [2] were 40.1 µM and 14.1 µM, respectively.
